Where two headings read alike, the source gives them in different places.
Tests used:
[1] = Description: (§1) The toxic metals were reported as μg/g creatinine in order to account for urine dilution variations.
as §1, §1, §1

[2] = cited from earlier work
[3] = tested on: chick embryo; details: single 50 μg of mercury dose; cited from earlier work
[4] = tested on: neurons; details: nanomolar (nM) to micromolar (μM) concentrations, within hours of exposure; cited from earlier work
[5] = tested on: susceptible mouse strain; details: weight- and age-adjusted 1990s US immunization schedule; cited from earlier work
[6] = tested on: neuronal damage in tissue culture; details: cited from earlier work
[7] = following three days of oral chelation with DMSA; cited from earlier work
[8] = tested on: subject suffering from autism or an autism spectrum disorder; test: Clinical observation of symptoms (physician, parents, educators); assay type: in vivo, human
[9] = tested on: rats of the JCL-SD strain; details: 0.3 to 2 mg/kg intravenously; male more susceptible; cited from earlier work
[10] = Child X (autistic person), urine collected Nov. 5, 2000, during DMSA treatment, creatinine 43.4 mg/dL
[11] = Child X, urine collected Sep. 30, 2001, during DMSA treatment, creatinine 54 mg/dL
[12] = Child Y (autistic person), urine collected Jun. 29, 2002, during DMSA treatment, creatinine 6.9 mg/dL
[13] = Child Y, urine collected Dec. 24, 2002, during DMSA treatment, creatinine 8.6 mg/dL

| Compound | Toxic metals in urine, Results [1, 10] | Toxic metals in urine, Results [1, 11] | Toxic metals in urine, Results [1, 12] | Toxic metals in urine, Results [1, 13] | further results |
| --- | --- | --- | --- | --- | --- |
| Cadmium | 1.4 μg/g creatinine | 0.5 μg/g creatinine | <dl | 1.6 μg/g creatinine | – |
| C[CH2][Hg][S]c1ccccc1C(=O)[O-].[Na+] [thimerosal] | – | – | – | – | Passage of the blood-brain barrier ([2]; infant monkeys, doses comparable to the US dosing schedule): crosses the blood-brain barrier; Half-life of inorganic mercury in the brain ([2]; infant monkeys): > 120 days; Maximum mercury concentration observed in the brain ([2]; infant monkeys): approximately 50 parts-per-billion; Overall half-life of mercury in the brain ([2]; infant monkeys): approximately 24 days; Inorganic mercury in the brains ([2]; thimerosal-treated infant monkeys, average following the dosing schedule): 16 parts-per-billion; Fetal lethality and teratogenicity compared to controls [3]: significant fetal lethality and teratogenecity; Effects on neurons [4]: inducing neuronal death, neurodegeneration, membrane damage, and DNA damage; Neurotoxic effects [5]: autistic symptoms in a susceptible mouse strain |
| estrogen | – | – | – | – | Effect of concurrent exposure on mercury induced neuronal damage [6]: ameliorated |
| Arsenic | 98 μg/g creatinine | 37 μg/g creatinine | 31 μg/g creatinine | 23 μg/g creatinine | – |
| O=C(O)[C@@H](S)[C@@H](S)C(=O)O [DMSA, meso-2,3-dimercaptosuccinic acid] | – | – | – | – | Urinary mercury concentration, autistic children versus matched normal controls [7]: approximately 6 fold; Mercury in urine on DMSA treatment ([1]; Child X, DMSA Oct. 21, 2000 through Feb. 3, 2002): spilled toxic levels of mercury in their urine; Mercury in urine on DMSA treatment ([1]; Child Y, DMSA Jun. 26, 2002 to May 2, 2003): spilled toxic levels of mercury in their urine; Clinical improvement as a result of DMSA treatment ([8]; Child X): some improvement; Improvement in autism on DMSA treatment ([8]; Child Y): did not show significant improvement |
| Aluminum | 26 μg/g creatinine | 14 μg/g creatinine | <dl* | <dl* | – |
| Platinum | 0.2 μg/g creatinine | <dl | <dl | <dl | – |
| Thallium | 0.2 μg/g creatinine | 0.2 μg/g creatinine | 0.9 μg/g creatinine | 0.6 μg/g creatinine | – |
| Bismuth | 0.8 μg/g creatinine | <dl | <dl | <dl | – |
| Beryllium | <dl* | <dl | <dl | <dl | – |
| Lead | 12 μg/g creatinine | 8.6 μg/g creatinine | <dl | <dl | – |
| [Cl][Hg][Cl] [mercuric chloride] | – | – | – | – | Renal toxicity [9]: acute renal tubular necrosis was produced |
| Antimony | 0.4 μg/g creatinine | <dl* | <dl | <dl | – |
| C[C@]12CC[C@H]3[C@@H](CCC4=CC(=O)CC[C@@]43C)[C@@H]1CC[C@@H]2O [testosterone] | – | – | – | – | Effect of concurrent exposure on mercury induced neuronal damage [6]: exacerbated |
| Tungsten | <dl | 0.3 μg/g creatinine | <dl | 1.6 μg/g creatinine | – |

Source: patent US20070254314A1, “Methods of treating autism and autism spectrum disorders” (priority 2004, published 2007)
